The record followed here is patent US20220289679A1, “HETEROCYCLIC COMPOUND” (Takeda Pharmaceutical Company Limited, priority 2019, published 2022).

The target in the assay is T1, human GCS (glucosylceramide synthase) (Homo sapiens, UniProt Q16739).
T1 construct: made in house; host or cells: Expi293F cells (transient expression; microsome fraction)
T1 sequence (Q16739 1-394): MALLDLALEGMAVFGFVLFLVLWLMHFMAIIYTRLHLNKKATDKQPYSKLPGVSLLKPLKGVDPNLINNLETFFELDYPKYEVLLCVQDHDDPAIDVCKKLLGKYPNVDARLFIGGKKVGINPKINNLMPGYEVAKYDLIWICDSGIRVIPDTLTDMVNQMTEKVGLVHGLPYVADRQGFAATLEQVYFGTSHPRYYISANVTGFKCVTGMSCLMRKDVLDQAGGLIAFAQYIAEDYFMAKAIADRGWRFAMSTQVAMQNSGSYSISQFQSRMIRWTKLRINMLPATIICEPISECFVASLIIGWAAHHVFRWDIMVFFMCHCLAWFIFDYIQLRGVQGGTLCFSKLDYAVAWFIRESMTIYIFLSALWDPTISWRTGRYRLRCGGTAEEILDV
Description: Glucosylceramide Synthase (GCS) Assay. The format is biochemical. The note with it: test compound 10 μM; microsome fraction of Expi293F cells expressing human GCS; 1.7 μM UDP-glucose, 3 μM C8 ceramide; room temperature 60 min; C8 glucosylceramide by Rapidfire MS/MS; read-out: GCS enzyme inhibitory rate at 10 μM (%). The procedure, abridged: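 Enzyme source was a microsome fraction from Expi293F cells transiently expressing human GCS. Reaction ran 60 min at room temperature in 20 mM Tris pH 7.5 with 1.7 μM UDP-glucose (Km) and 3 μM liposomal C8 ceramide, compound at 10 μM final. C8 glucosylceramide quantified by RapidFire MS/MS; inhibition scaled between enzyme-free and DMSO controls.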
As for `O=C(Nc1ccc(C(O)(C(F)F)C(F)F)nc1)c1cccn(-c2cccnc2OCC(F)(F)F)c1=O` [Example 123, 2-oxo-N-[6-(1,1,3,3-tetrafluoro-2-hydroxypropan-2-yl)pyridin-3-yl]-2′-(2,2,2-trifluoroethoxy)-2H-[1,3′-bipyridine]-3-carboxamide], the inhibition at 10 µM is 99%. The value for `O=C(Nc1ccc(OCC(F)(F)F)nc1)c1cccn(-c2ncncc2OCC(F)(F)F)c1=O` [Example 110, 2-oxo-N-[6-(2,2,2-trifluoroethoxy)pyridin-3-yl]-1-[5-(2,2,2-trifluoroethoxy)pyrimidin-4-yl]-1,2-dihydropyridine-3-carboxamide] was 99%; that for `CC(C)(O)c1ccc(NC(=O)c2cccn(-c3ccccc3OCC(F)(F)F)c2=O)cn1` [Example 84, N-[6-(2-hydroxypropan-2-yl)pyridin-3-yl]-2-oxo-1-[2-(2,2,2-trifluoroethoxy)phenyl]-1,2-dihydropyridine-3-carboxamide] was 98%. The value for `CC(C)(O)c1ccc(NC(=O)c2cccn(-c3ccc(F)cc3OCC(F)F)c2=O)cc1` [Example 102, 1-[2-(2,2-difluoroethoxy)-4-fluorophenyl]-N-[4-(2-hydroxypropan-2-yl)phenyl]-2-oxo-1,2-dihydropyridine-3-carboxamide] was 98%; that for `O=C(Nc1ccc(F)cc1F)c1cn(CC2COC2)nc(-c2ccccc2OCC(F)F)c1=O` [Example 181, 6-[2-(2,2-difluoroethoxy)phenyl]-N-(2,4-difluorophenyl)-2-[(oxetan-3-yl)methyl]-5-oxo-2,5-dihydropyridazine-4-carboxamide] was 97%. As for `CC(C)(C#N)c1ccc(NC(=O)c2cccn(-c3ccc(F)cc3OCC(F)(F)F)c2=O)cn1` [Example 87, N-[6-(2-cyanopropan-2-yl)pyridin-3-yl]-1-[4-fluoro-2-(2,2,2-trifluoroethoxy)phenyl]-2-oxo-1,2-dihydropyridine-3-carboxamide], the inhibition at 10 µM worked out at 99%. The value for `COc1cc(C(C)(C)O)ccc1NC(=O)c1cc(C)nn(-c2ccccc2OCC(F)F)c1=O` [Example 151, 2-[2-(2,2-difluoroethoxy)phenyl]-N-[4-(2-hydroxypropan-2-yl)-2-methoxyphenyl]-6-methyl-3-oxo-2,3-dihydropyridazine-4-carboxamide] was 53%; that for `CC(C)(O)c1ccc(NC(=O)c2cccn(-c3ccnnc3OCC(F)(F)F)c2=O)cc1` [Example 90, N-[4-(2-hydroxypropan-2-yl)phenyl]-2-oxo-1-[3-(2,2,2-trifluoroethoxy)pyridazin-4-yl]-1,2-dihydropyridine-3-carboxamide] was 90%; that for `Cc1cc(C(=O)Nc2ccc(C3COC3)cc2)c(=O)n(-c2ccccc2OCC(F)F)n1` [Example 141, 2-[2-(2,2-difluoroethoxy)phenyl]-6-methyl-N-[4-(oxetan-3-yl)phenyl]-3-oxo-2,3-dihydropyridazine-4-carboxamide] was 99%. For `CC(C)(O)c1ccc(NC(=O)c2cccn(-c3cc(F)c(F)cc3OCC(F)(F)F)c2=O)cc1` [Example 108, 1-[4,5-difluoro-2-(2,2,2-trifluoroethoxy)phenyl]-N-[4-(2-hydroxypropan-2-yl)phenyl]-2-oxo-1,2-dihydropyridine-3-carboxamide], the inhibition at 10 µM was determined as 95%. The value for `CC(O)c1ccc(NC(=O)c2ccnn(-c3ccccc3OCC(F)(F)F)c2=O)cc1` (racemic) [Example 138, rac-N-[4-(1-hydroxyethyl)phenyl]-3-oxo-2-[2-(2,2,2-trifluoroethoxy)phenyl]-2,3-dihydropyridazine-4-carboxamide] was 99%. Under `O=C(Nc1ccn(CC(F)(F)F)n1)c1cccn(-c2ccccc2OCC(F)(F)F)c1=O` [Example 22, 2-oxo-1-[2-(2,2,2-trifluoroethoxy)phenyl]-N-[1-(2,2,2-trifluoroethyl)-1H-pyrazol-3-yl]-1,2-dihydropyridine-3-carboxamide] stands 77%.
